In patent US7829560B2, “1,4-disubstituted naphthalenes as inhibitors of P38 MAP kinase” (Arqule, Inc., priority 2004, dated 2010) one finds IC50 and inhibition data, which are given here for 32 compounds.

A word on the IC50: it is the midpoint of a concentration-inhibition curve.

For test [1], the system named is TNFα release from THP-1 cells. Description: Inhibition of TNFα release from LPS-stimulated THP-1 cells, ELISA. Format: cell-based. The settings on record: Homo sapiens, read-out: [CELL] THP-1, IC50, TNF ALPHA, ELISA. From the text:
Compounds of the invention are screened for the ability to inhibit TNFα and IL-1β release from THP-1 cells stimulated with lipopolysaccharide (LPS) in vitro. The ability of compounds to inhibit TNFα and IL-1β release in this in vitro assay is correlated with the inhibition of p38 activity and TNFα and IL-1β expression in vivo, and is therefore an indicator of potential in vivo therapeutic activity (Lee J. C. et al, Ann. N.Y. Acad. Sci. 696: 149-170, 1993 and Nature, 372: 739-746, 1994).
Materials: THP-1 cells from ATCC (TIB202) are maintained at 37° C., 5% CO2 in RPMI 1640 media (available from MediaTech, Herndon, Va.) containing 4.5 g/L glucose, supplemented with 10% fetal bovine serum, 1% penicillin/streptomycin and 50 μM β-mercaptoethanol.
Methods: Test compounds are initially dissolved in RPMI media with 1% DMSO (v/v). Compounds are then serially diluted in RPMI media for all subsequent dilutions. The assay is performed under sterile conditions. THP-1 cells at a culture density of 6-8×10^5 cells/ml are collected and resuspended in the RPMI media at 10^6 cells/ml containing 10% fetal bovine serum, no serum or 1% human serum albumin (HSA). 100 μl of resuspended cells are added to each well, which contain 100 μl of a test compound. Test compounds are prepared at twice the final concentration. Final DMSO concentration is no more than 0.5% (v/v). Cells are preincubated with compound for 30 minutes at 37° C., 5% CO2 prior to stimulation with lipopolysaccharide (LPS) (Sigma L-2880, 4 mg/ml stock in PBS). The final LPS concentration in each well is 10 or 30 μg/ml for TNFα and IL-1β release, respectively. Unstimulated control cell suspensions receive PBS vehicle only. Cell mixtures are incubated for 18 or 48 hours for TNFα and IL-1β prelease, respectively. 150 μl of supernatants are taken and transferred to a fresh plate and stored at −20° C. until further analysis. TNFα and IL-1β levels are measured using ELISA kits from Biosource (Catalog no. KHC3012 for TNFα; KAC1192 for IL-1β). A SpectraMAX 250 is used as the plate reader. Analysis is performed by non-linear regression to generate a dose response curve. The calculated IC50 value is the concentration of the test compound that causes a 50% decrease in TNFα or IL-1β levels.

Another test has as its target T1, p38α (Homo sapiens, UniProt Q16539).
T1 construct: p38 MAP Kinases are recombinant human full-length proteins with an amino-terminal GST fusion; GST (N); purchased Upstate Biotechnology Inc; host or cells: E. coli
Description: p38 MAP Kinase assay: inhibition of ATF2 phosphorylation, ELISA. The note with it: for IC50: ATF2 phosphorylation, read-out: [ENZ] P38 ALPHA, IC50, ELISA; for inhibition at 10 µM: substrate ATF2, read-out: [ENZ] P38 ALPHA, PCT INH, ELISA (10 uM;ATF2) (Percent). Format: biochemical. In a few lines: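 In vitro phosphorylation of ATF2 at Thr69 by recombinant human GST-p38 MAP kinase, read by anti-phospho-ATF2 ELISA at 450 nm. Enzyme and compound pre-incubated 15 min at RT, then 30 min reaction at 37 °C with 40 μM ATP and 1.25 μM ATF2; buffer with or without 1% HSA (Method II or I).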
On the technique in general: An ELISA detects its analyte on a solid surface through an enzyme-linked reagent.

Read-outs that look alike come from different tables or passages of the source.

T1 sequence (Q16539 whole entry, the tested form may be a part): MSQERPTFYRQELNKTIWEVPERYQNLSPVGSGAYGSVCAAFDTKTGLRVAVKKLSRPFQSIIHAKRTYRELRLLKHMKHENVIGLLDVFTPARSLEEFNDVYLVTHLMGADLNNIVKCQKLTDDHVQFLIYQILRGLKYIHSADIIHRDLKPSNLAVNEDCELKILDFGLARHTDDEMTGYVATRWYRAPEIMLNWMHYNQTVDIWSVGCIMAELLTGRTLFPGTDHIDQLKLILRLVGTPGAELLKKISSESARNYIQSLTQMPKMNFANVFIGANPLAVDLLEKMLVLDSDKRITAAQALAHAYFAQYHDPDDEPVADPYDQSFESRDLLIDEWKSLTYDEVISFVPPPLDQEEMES

As for `O=C(Nc1ccc(OCCN2CCOCC2)c2ccccc12)c1cc(Br)ccc1Cl` [Compound B38], the IC50 in test [1] (THP-1, THP-1 cells) is greater than 10 µM; at p38α it was greater than 10 µM.
For `Cc1ccc(N2CCOCC2)cc1C(=O)Nc1ccc(OCCN2CCOCC2)c2ccccc12` [Compound B39, 2-Methyl-5-morpholin-4-yl-N-[4-(2-morpholin-4-yl-ethoxy)-naphthalen-1-yl]-benzamide], the IC50 in test [1] (THP-1, THP-1 cells) is 2.76 µM; at p38α it was 2.46 µM.
The matching figures for `Cc1ccc(C(=O)Nc2ccc(OCCN3CCOCC3)c3ccccc23)cc1N1CCOCC1` [Compound B40, 4-Methyl-3-morpholin-4-yl-N-[4-(2-morpholin-4-yl-ethoxy)-naphthalen-1-yl]-benzamide]: greater than 10 µM and 2.49 µM.
The matching figures for `O=C(Nc1ccc(OCCN2CCOCC2)c2ccccc12)c1cc(N2CCOCC2)ccc1Cl` [Compound B41]: greater than 10 µM and greater than 10 µM.
As for `O=C(Nc1ccc(OCCN2CCOCC2)c2ccccc12)c1cc(N2CCOCC2)nc(Cl)n1` [Compound B42, 2-Chloro-6-morpholin-4-yl-pyrimidine-4-carboxylic acid [4-(2-morpholin-4-yl-ethoxy)-naphthalen-1-yl]-amide], the IC50 is greater than 1 µM in test [1] (THP-1, THP-1 cells) and 6.34 µM at p38α.
The matching figures for `O=C(Nc1ccc(OCCN2CCOCC2)c2ccccc12)c1ccnc(N2CCC(O)CC2)c1` [Compound B43, 4-Hydroxy-3,4,5,6-tetrahydro-2 H-[1,2′]bipyridinyl-4′-carboxylic acid [4-(2-morpholin-4-yl-ethoxy)-naphthalen-1-yl]-amide]: 2.72 µM and greater than 10 µM.
On to `O=C(Nc1ccc(OCCN2CCOCC2)c2ccccc12)c1ccnc(N2CCC3(CC2)OCCO3)c1` [Compound B44, 2-(1,4-Dioxa-8-aza-spiro[4.5]dec-8-yl)-N-[4-(2-morpholin-4-yl-ethoxy)-naphthalen-1-yl]-isonicotinamide], for which the IC50 is 1.01 µM in test [1] (THP-1, THP-1 cells) and greater than 10 µM at p38α.
The matching figures for `O=C(Nc1ccc(OCCN2CCOCC2)c2ccccc12)c1ccnc(N2CCCC2)c1` [Compound B45, N-[4-(2-Morpholin-4-yl-ethoxy)-naphthalen-1-yl]-2-pyrrolidin-1-yl-isonicotinamide]: 1.19 µM and 2.12 µM.
Regarding `Cc1nc(C(=O)Nc2ccc(OCCN3CCOCC3)c3ccccc23)cc(N2CCOCC2)n1` [Compound B46], the IC50 in test [1] (THP-1, THP-1 cells) was 0.685 µM; on p38α it was greater than 10 µM.
On to `O=C(Nc1ccc(OCCN2CCOCC2)c2ccccc12)c1cc(N2CCOCC2)nc(N2CCCC2)n1` [Compound B47], for which the IC50 in test [1] (THP-1, THP-1 cells) is 0.843 µM; on p38α, greater than 10 µM.
For `O=C(Nc1ccc(OCCN2CCOCC2)c2ccccc12)c1cn(Cc2ccccc2)c2ccccc12` [Compound B49], the IC50 (in test [1] (THP-1 cells); at p38α) was greater than 10 µM throughout.
Turning to `O=C(Nc1ccc(OCCN2CCOCC2)c2ccccc12)c1cccc(CN2CCCCC2)c1` [Compound B55], the IC50 in test [1] (THP-1, THP-1 cells) was greater than 10 µM; on p38α, greater than 10 µM.
Regarding `Cc1cccc(C(=O)Nc2ccc(OCCN3CCOCC3)c3ccccc23)c1` [Compound B56], the IC50 in test [1] (THP-1, THP-1 cells) is greater than 10 µM; on p38α, greater than 10 µM.
On to `CN1CCN(c2cccc(C(=O)Nc3ccc(OCCN4CCOCC4)c4ccccc34)c2)CC1` [Compound B59], for which the IC50 in test [1] (THP-1, THP-1 cells) is greater than 10 µM; on p38α, greater than 10 µM.
Regarding `O=C(Nc1ccc(OCCN2CCOCC2)c2ccccc12)c1cccc(Oc2ccccc2)c1` [Compound B61], the IC50 was greater than 10 µM in test [1] (THP-1, THP-1 cells) and 2.3 µM on p38α.
The matching figures for `O=C(Nc1ccc(OCCN2CCOCC2)c2ccccc12)c1ccc2c(c1)OCCCO2` [Compound B62]: greater than 10 µM and greater than 10 µM.
The matching figures for `CC(C)(C)OC(=O)Nc1cccc(C(=O)Nc2ccc(OCCN3CCOCC3)c3ccccc23)c1` [Compound B63]: greater than 10 µM and greater than 10 µM.
The matching figures for `O=C(Nc1ccc(OCCN2CCOCC2)c2ccccc12)c1cccc(N2CCC3CCCCC3C2)n1` (centres unmarked) [Compound B71]: greater than 10 µM and greater than 10 µM.
With `Cc1cccc(C(=O)Nc2ccc(OCCN3CCOCC3)c3ccccc23)c1Cl` [Compound B82], the IC50 in test [1] (THP-1, THP-1 cells) was 10.7 µM. The inhibition at 10 µM on p38α turned out to be 41.3%.
As to `O=C(Nc1ccc(OCCN2CCOCC2)c2ccccc12)c1cccc(-c2ccccc2)c1` [Compound B84, Biphenyl-3-carboxylic acid [4-(2-morpholin-4-yl-ethoxy)-naphthalen-1-yl]-amide], the half-maximal inhibitory concentration (IC50) in test [1] (THP-1, THP-1 cells) turned out to be 2.03 µM. Also, on p38α, the inhibition at 10 µM was 88% and the IC50 was 0.451 µM.
On to `O=C(Nc1ccc(OCCN2CCOCC2)c2ccccc12)c1ccc2ccccc2c1` [Compound B85], for which the IC50 in test [1] (THP-1, THP-1 cells) was found to be 4.03 µM; on p38α, 3.18 µM. Further, at p38α, the inhibition at 10 µM amounted to 66%.
Regarding `O=C(Nc1ccc(OCCN2CCOCC2)c2ccccc12)c1cccc(-c2ccncc2)c1` [Compound B86, N-[4-(2-Morpholin-4-yl-ethoxy)-naphthalen-1-yl]-3-pyridin-4-yl-benzamide], the IC50 in test [1] (THP-1, THP-1 cells) stood at 2.71 µM. On p38α, the inhibition at 10 µM was 67% and the IC50 came out at 4.16 µM.
As for `O=C(Nc1ccc(OCCN2CCOCC2)c2ccccc12)c1cccc(-c2cccc(C(F)(F)F)c2)c1` [Compound B88, 3′-Trifluoromethyl-biphenyl-3-carboxylic acid [4-(2-morpholin-4-yl-ethoxy)-naphthalen-1-yl]-amide], the IC50 in test [1] (THP-1, THP-1 cells) is 3.6 µM. For the same compound, at p38α, the inhibition at 10 µM was determined as 59% and the IC50 amounted to 1.85 µM.
In the case of `COc1ccccc1-c1cccc(C(=O)Nc2ccc(OCCN3CCOCC3)c3ccccc23)c1` [Compound B90], the IC50 in test [1] (THP-1, THP-1 cells) stood at 5.25 µM. For the same compound, on p38α, the inhibition at 10 µM was 78% and the IC50 amounted to 1.33 µM.
For the compound `COc1cccc(-c2cccc(C(=O)Nc3ccc(OCCN4CCOCC4)c4ccccc34)c2)c1` [Compound B91], in test [1] (THP-1, THP-1 cells), the IC50 worked out at 3.55 µM. For the same compound, at p38α, the inhibition at 10 µM was found to be 78% and the IC50 was determined as 0.9 µM.
The matching figures for `CCCC/C=C/c1cccc(C(=O)Nc2ccc(OCCN3CCOCC3)c3ccccc23)c1` [Compound B99]: 5.57 µM, 45% and greater than 10 µM.
The matching figures for `O=C(Nc1ccc(OCCN2CCOCC2)c2ccccc12)c1cccc(-c2ccc(F)cc2F)c1` [Compound B100]: 1.59 µM, 86% and 0.744 µM.
The matching figures for `O=C(Nc1ccc(OCCN2CCOCC2)c2ccccc12)c1cccc(-c2ccccc2Cl)c1` [Compound B101]: 2.03 µM, 87% and 0.864 µM.
For the compound `Cc1cccc(-c2cccc(C(=O)Nc3ccc(OCCN4CCOCC4)c4ccccc34)c2)c1` [Compound B104], the IC50 in test [1] (THP-1, THP-1 cells) amounted to 4.44 µM. Moreover, on p38α, the inhibition at 10 µM is 66% and the IC50 is 0.965 µM.
For the compound `COc1cccc(OC)c1-c1cccc(C(=O)Nc2ccc(OCCN3CCOCC3)c3ccccc23)c1` [Compound B108], the IC50 in test [1] (THP-1, THP-1 cells) was found to be 2.26 µM. In addition, on p38α, the inhibition at 10 µM was found to be 42% and the IC50 was greater than 10 µM.
The matching figures for `N#Cc1cccc(-c2cccc(C(=O)Nc3ccc(OCCN4CCOCC4)c4ccccc34)c2)c1` [Compound B110]: 6.43 µM, 61% and greater than 1 µM.
The matching figures for `O=C(Nc1ccc(OCCN2CCOCC2)c2ccccc12)c1ccnc(N2CCOCC2)c1` [Compound B122, 2-Morpholin-4-yl-N-[4-(2-morpholin-4-yl-ethoxy)-naphthalen-1-yl]-isonicotinamide]: 2.1 µM, 73.5% and 3.52 µM.
